Laboratory results from patent US9757353B2, “Methods of inducing anesthesia” (THE REGENTS OF THE UNIVERSITY OF CALIFORNIA, priority 2012, dated 2017).

Key:
[1] = biological target: T1, NMDA (NR1/NR2A) receptors (Rattus norvegicus, UniProt P35439+Q00959); assay: Oocyte two-electrode voltage clamp, NMDA receptor currents; type: cell-based; conditions: for NMDA % Direct Effect: drug response without receptor agonist, percent of control agonist peak, saturated drug, mean ± SEM, 5-6 oocytes; for NMDA Drug Response: saturated drug + agonist
T1 construct: expressed in transfected cells; host or cells: Xenopus laevis oocytes, injected with in vitro transcribed RNA (1:1), clones a gift from Dr. R. A. Harris
From the text: Methods: GABAA (α1β2γ2s) or NMDA (NR1/NR2A) receptors were expressed in oocytes and studied using standard two-electrode voltage clamp techniques. Hydrocarbons from 14 different organic functional groups were studied at saturated concentrations, and compounds within each group differed only by the carbon number at the ω-position or within a saturated ring. An effect on GABAA or NMDA receptors was defined as a 10% or greater reversible current change from baseline that was statistically different from zero.
Oocyte Collection and Receptor Expression. An ovary from tricaine-anesthetized Xenopus laevis frogs was surgically removed using a protocol approved by the Institutional Animal Care and Use Committee at the University of California, Davis. Following manual disruption of the ovarian lobule septae, the ovary was incubated in 0.2% Type I collagenase (Worthington Biochemical, Lakewood, N.J.) to defolliculate oocytes which were washed and stored in fresh and filtered modified Barth's solution composed of 88 mM NaCl, 1 mM KCl, 2.4 mM NaHCO3, 20 mM HEPES, 0.82 mM MgSO4, 0.33 mM Ca(NO3)2, 0.41 mM CaCl2, 5 mM sodium pyruvate, gentamycin, penicillin, streptomycin, and corrected to pH=7.4. All salts and antibiotics were A.C.S. grade (Fisher Scientific, Pittsburgh, Pa.).
Clones used were provided as a gift from Dr. R. A. Harris (University of Texas, Austin) and were sequenced and compared to references in the National Center for Biotechnology Information database to confirm the identity of each gene. GABAA receptors were expressed using clones for the human GABAA α1 and the rat GABAA β2 and γ2s subunits in pCIS-II vectors. […] In separate oocytes, glutamate receptors were expressed using rat NMDA NR1 clones in a pCDNA3 vector and rat NMDA NR2A clones in a Bluescript vector. RNA encoding each subunit was prepared using a commercial transcription kit (T7 mMessage mMachine, Ambion, Austin, Tex.) was mixed in a 1:1 ratio, and 1-10 ng of total RNA was injected into oocytes and studied 1-2 days later.
NMDA Receptor Electrophysiology Studies. […] Briefly, baseline perfusion solutions were the same as for GABAA with the substitution of equimolar BaCl2 for calcium salts and the addition of 0.1 mM EGTA; this constituted barium frog Ringer's solution (BaFR). Agonist solutions for NMDA studies also contained 0.1 mM glutamate (E) and 0.01 mM glycine (G) to constitute a BaFREG solution.
The syringe pump and perfusion chamber apparatus as well as the clamp holding potential and baseline-agonist exposure protocols were identical to that described for the GABAA studies. The same test compounds, concentrations, and preparative methods were used in NMDA voltage clamp studies as in the GABAA voltage clamp studies (Table 2).
Response Calculations and Data Analysis. Modulating drug responses were calculated as the percent of the control (baseline) peak as follows:
[formula] where ID and IB were the peak currents measured during agonist+drug and agonist baseline perfusions, respectively. When present, direct receptor activation by a drug was similarly calculated as a percent of the agonist response. […] A lack of receptor response (cut-off) was defined as a <10% change from baseline current that was statistically indistinguishable from zero using a two-tailed Student t-test.

[2] = biological target: GABAA (α1β2γ2s) receptors (UniProt P14867+P18508+P63138); assay: Oocyte two-electrode voltage clamp, GABAA receptor currents; conditions: for GABAA % Direct Effect: drug response without receptor agonist, percent of control agonist peak, saturated drug, mean ± SEM, 5-6 oocytes; for GABAA Drug Response: saturated drug + agonist; for GABAA receptor modulation (in words): saturating aqueous concentration
Description: GABAA receptors were expressed using clones for the human GABAA α1 and the rat GABAA β2 and γ2s subunits in pCIS-II vectors. […] These plasmid ratios ensured incorporation of the γ-subunit into expressed receptors, as confirmed via receptor potentiation to 10 μM chlordiazepoxide or insensitivity to 10 μM zinc chloride during co-application with GABA. In separate oocytes, glutamate receptors were expressed using rat NMDA NR1 clones in a pCDNA3 vector and rat NMDA NR2A clones in a Bluescript vector. RNA encoding each subunit was prepared using a commercial transcription kit (T7 mMessage mMachine, Ambion, Austin, Tex.) was mixed in a 1:1 ratio, and 1-10 ng of total RNA was injected into oocytes and studied 1-2 days later.
Oocytes were studied in a 250 μL linear-flow perfusion chamber with solutions administered by syringe pump at 1.5 ml/min with gastight glass syringes and Teflon tubing. Oocyte GABAA currents were studied using standard two-electrode voltage clamping techniques at a holding potential of 80 mV using a 250 μL channel linear-flow perfusion chamber with solutions administered by syringe pump at 1.5 mL/min.
After FR perfusion for 5 min, oocytes were exposed to 30 sec FR-GABA followed by another 5 min FR washout; this was repeated until stable GABAA-elicited peaks were obtained. Next, FR containing a saturated solution of the study drug (Table 2)—or for gaseous study compounds a vapor pressure equal to 90% of barometric pressure with balance oxygen—was used to perfuse the oocyte chamber for 2 min followed by perfusion with a FR-GABA solution containing the identical drug concentration for 30 sec.
[formula] where ID and IB were the peak currents measured during agonist+drug and agonist baseline perfusions, respectively. When present, direct receptor activation by a drug was similarly calculated as a percent of the agonist response. Average current responses for each drug and channel were described by mean±SD. A lack of receptor response (cut-off) was defined as a <10% change from baseline current that was statistically indistinguishable from zero using a two-tailed Student t-test.

[3] = tested on: 3-transmembrane (TM3) and 4-transmembrane (TM4) receptors; conditions: cited from earlier work

Chain of GABAA (α1β2γ2s) receptors (P14867 28-456): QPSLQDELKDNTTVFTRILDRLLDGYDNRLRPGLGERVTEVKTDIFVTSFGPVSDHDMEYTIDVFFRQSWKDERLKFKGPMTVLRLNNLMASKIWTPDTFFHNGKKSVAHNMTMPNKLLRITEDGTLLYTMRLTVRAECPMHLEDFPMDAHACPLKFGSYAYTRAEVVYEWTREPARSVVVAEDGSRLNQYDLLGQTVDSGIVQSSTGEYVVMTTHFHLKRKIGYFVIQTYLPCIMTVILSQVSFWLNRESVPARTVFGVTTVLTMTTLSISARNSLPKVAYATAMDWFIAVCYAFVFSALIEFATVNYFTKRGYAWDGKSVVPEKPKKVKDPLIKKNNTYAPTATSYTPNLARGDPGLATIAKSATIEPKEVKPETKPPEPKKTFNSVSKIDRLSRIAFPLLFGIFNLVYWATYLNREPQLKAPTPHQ
Chain of GABAA (α1β2γ2s) receptors (P63138 25-474 limits assumed): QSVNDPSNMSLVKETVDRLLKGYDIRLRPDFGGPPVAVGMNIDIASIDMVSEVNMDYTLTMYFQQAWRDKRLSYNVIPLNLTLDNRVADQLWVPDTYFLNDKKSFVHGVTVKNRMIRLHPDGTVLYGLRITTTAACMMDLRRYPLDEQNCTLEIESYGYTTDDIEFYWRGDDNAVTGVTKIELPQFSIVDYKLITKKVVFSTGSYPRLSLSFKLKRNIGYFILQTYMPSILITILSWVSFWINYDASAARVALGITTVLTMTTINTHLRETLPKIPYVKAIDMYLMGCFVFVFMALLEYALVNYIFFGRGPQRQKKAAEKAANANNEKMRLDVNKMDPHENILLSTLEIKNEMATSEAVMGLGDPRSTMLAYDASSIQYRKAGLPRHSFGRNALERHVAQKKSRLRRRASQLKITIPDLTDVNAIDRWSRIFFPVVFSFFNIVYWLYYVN
Chain of GABAA (α1β2γ2s) receptors (P18508 39-466): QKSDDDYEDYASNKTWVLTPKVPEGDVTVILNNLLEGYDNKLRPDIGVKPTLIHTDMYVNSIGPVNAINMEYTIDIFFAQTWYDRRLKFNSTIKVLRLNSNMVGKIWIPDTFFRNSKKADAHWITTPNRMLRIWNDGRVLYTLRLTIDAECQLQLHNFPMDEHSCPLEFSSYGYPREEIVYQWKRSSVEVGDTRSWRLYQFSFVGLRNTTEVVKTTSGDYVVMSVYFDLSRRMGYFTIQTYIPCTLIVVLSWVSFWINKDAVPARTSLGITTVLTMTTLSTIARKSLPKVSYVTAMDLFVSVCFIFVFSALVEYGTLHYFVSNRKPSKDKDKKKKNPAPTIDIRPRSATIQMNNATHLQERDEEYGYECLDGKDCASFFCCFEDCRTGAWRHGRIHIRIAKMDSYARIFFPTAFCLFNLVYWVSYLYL
T1 sequence (Q00959 23-1464, other chains not shown): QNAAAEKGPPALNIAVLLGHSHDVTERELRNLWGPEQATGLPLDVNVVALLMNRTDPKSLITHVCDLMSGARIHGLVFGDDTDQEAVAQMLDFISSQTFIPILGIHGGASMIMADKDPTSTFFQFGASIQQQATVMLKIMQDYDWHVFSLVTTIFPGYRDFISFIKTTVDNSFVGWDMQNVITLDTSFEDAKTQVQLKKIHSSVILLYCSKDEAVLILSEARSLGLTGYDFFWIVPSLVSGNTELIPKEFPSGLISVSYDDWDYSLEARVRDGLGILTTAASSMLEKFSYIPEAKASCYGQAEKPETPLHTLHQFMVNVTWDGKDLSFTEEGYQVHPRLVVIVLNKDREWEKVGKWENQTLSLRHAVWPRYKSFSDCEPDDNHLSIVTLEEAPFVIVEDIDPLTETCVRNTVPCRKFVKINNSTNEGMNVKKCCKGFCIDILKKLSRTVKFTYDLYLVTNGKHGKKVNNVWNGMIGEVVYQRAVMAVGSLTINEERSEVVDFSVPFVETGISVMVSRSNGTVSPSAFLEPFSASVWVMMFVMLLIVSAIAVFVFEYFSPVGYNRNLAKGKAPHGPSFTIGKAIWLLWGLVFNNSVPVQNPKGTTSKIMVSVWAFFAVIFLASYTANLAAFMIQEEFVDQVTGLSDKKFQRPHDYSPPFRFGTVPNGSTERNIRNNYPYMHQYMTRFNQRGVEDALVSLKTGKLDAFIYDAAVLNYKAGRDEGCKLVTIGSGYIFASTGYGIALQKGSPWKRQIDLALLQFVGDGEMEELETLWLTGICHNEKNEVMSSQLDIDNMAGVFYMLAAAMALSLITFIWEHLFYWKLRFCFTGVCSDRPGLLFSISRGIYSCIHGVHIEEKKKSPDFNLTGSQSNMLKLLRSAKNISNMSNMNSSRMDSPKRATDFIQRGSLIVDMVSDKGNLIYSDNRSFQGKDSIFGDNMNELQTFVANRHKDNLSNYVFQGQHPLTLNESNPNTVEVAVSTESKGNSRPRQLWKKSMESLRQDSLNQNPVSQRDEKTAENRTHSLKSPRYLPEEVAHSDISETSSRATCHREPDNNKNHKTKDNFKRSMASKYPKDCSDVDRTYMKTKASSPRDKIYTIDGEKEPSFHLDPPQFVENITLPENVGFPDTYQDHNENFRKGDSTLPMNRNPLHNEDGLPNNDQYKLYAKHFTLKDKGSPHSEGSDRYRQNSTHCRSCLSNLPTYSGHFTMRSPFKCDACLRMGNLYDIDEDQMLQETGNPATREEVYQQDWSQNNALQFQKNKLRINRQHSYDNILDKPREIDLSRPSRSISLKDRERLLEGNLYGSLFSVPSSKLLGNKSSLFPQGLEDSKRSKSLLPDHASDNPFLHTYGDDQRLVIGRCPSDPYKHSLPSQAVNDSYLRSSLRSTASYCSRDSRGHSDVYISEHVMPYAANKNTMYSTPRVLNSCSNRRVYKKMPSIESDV

SMILES | NMDA % Direct Effect [1] | NMDA Drug Response [1] | GABAA % Direct Effect [2] | GABAA Drug Response [2] | ion channel modulation (TM3 / TM4 receptors), FIG. 2 [3] | NMDA receptor modulation (in words) ([1]; saturating aqueous concentration) | GABAA receptor modulation (in words) [2]
C#CCCCCCC [1-octyne] | none | 0 (no response (0) for drug+agonist responses that differ by <10% from the control agonist peak) | none | + (potentiation (+) for drug+agonist responses greater than the control agonist peak) |  |  | 
C=CCCC [1-pentene] | none |  | 2 ± 3% | + (potentiation (+) for drug+agonist responses greater than the control agonist peak) |  |  | 
CCCCCCCCCCCO [1-undecanol] | none | 0 (no response (0) for drug+agonist responses that differ by <10% from the control agonist peak) | none | + (potentiation (+) for drug+agonist responses greater than the control agonist peak) |  |  | 
CCCCCCCCC(C)=O [2-decanone] | none |  | none | + (potentiation (+) for drug+agonist responses greater than the control agonist peak) |  |  | 
CCCCCCCCCCC(C)=O [2-dodecanone] | none | 0 (no response (0) for drug+agonist responses that differ by <10% from the control agonist peak) | none | + (potentiation (+) for drug+agonist responses greater than the control agonist peak) |  |  | 
CCCCCCCCCC(C)=O [2-undecanone] | none | 0 (no response (0) for drug+agonist responses that differ by <10% from the control agonist peak) | none | + (potentiation (+) for drug+agonist responses greater than the control agonist peak) |  |  | 
CCOCC [Diethyl ether] |  |  |  |  | modulate both 3-transmembrane (TM3) and TM4 receptors |  | 
CCOC(=O)c1cncn1[C@H](C)c1ccccc1 [Etomidate] |  |  |  |  | modulate 4-transmembrane receptors (TM4) or neither receptor type |  | 
FC(F)(F)C(Cl)Br (centres unmarked) [Halothane] |  |  |  |  | modulate both 3-transmembrane (TM3) and TM4 receptors |  | 
FC(F)OC(Cl)C(F)(F)F (centres unmarked) [Isoflurane] |  |  |  |  | modulate both 3-transmembrane (TM3) and TM4 receptors |  | 
CNC1(c2ccccc2Cl)CCCCC1=O (centres unmarked) [Ketamine] |  |  |  |  | modulate both 3-transmembrane (TM3) and TM4 receptors |  | 
COC(F)(F)C(Cl)Cl [Methoxyflurane] |  |  |  |  | modulate both 3-transmembrane (TM3) and TM4 receptors |  | 
CCCC [butane] | none |  | none | + (potentiation (+) for drug+agonist responses greater than the control agonist peak) |  | negatively modulates NMDA receptors | positively modulate GABAA receptors
C1CCCCC1 [cyclohexane] | none | 0 (no response (0) for drug+agonist responses that differ by <10% from the control agonist peak) | none | + (potentiation (+) for drug+agonist responses greater than the control agonist peak) |  |  | 
C1CCCC1 [cyclopentane] | none |  |  | + (potentiation (+) for drug+agonist responses greater than the control agonist peak) |  |  | 
C1CC1 [cyclopropane] |  |  |  |  | modulate both 3-transmembrane (TM3) and TM4 receptors |  | 
CCCCCCCCCC=O [decanal] | none | 0 (no response (0) for drug+agonist responses that differ by <10% from the control agonist peak) | none | + (potentiation (+) for drug+agonist responses greater than the control agonist peak) |  |  | 
FC(F)OC(F)C(F)(F)F (centres unmarked) [desflurane] |  |  |  |  | modulate both 3-transmembrane (TM3) and TM4 receptors |  | 

SMILES | NMDA % Direct Effect [1] | NMDA Drug Response [1] | GABAA % Direct Effect [2] | GABAA Drug Response [2] | ion channel modulation (TM3 / TM4 receptors), FIG. 2 [3] | NMDA receptor modulation (in words) ([1]; saturating aqueous concentration) | GABAA receptor modulation (in words) [2]
CN1C(=O)CN=C(c2ccccc2)c2cc(Cl)ccc21 [diazepam] |  |  |  |  | modulate 4-transmembrane receptors (TM4) or neither receptor type |  | 
CCCCCCOCCCCCC [dihexylether] | none | 0 (no response (0) for drug+agonist responses that differ by <10% from the control agonist peak) | none | + (potentiation (+) for drug+agonist responses greater than the control agonist peak) |  |  | 
CCCCCOCCCCC [dipentylether] | none | 0 (no response (0) for drug+agonist responses that differ by <10% from the control agonist peak) | none | + (potentiation (+) for drug+agonist responses greater than the control agonist peak) |  |  | 
C[C@]12N[C@H](Cc3ccccc31)c1ccccc12 [dizocilpine] |  |  |  |  | modulate both 3-transmembrane (TM3) and TM4 receptors |  | 
FC(F)OC(F)(F)C(F)Cl (centres unmarked) [enflurane] |  |  |  |  | modulate both 3-transmembrane (TM3) and TM4 receptors |  | 
CCO [ethanol] |  |  |  |  | modulate both 3-transmembrane (TM3) and TM4 receptors |  | 
CCCCCCCCCC(=O)OCC [ethyl decanoate] | none | 0 (no response (0) for drug+agonist responses that differ by <10% from the control agonist peak) | none | + (potentiation (+) for drug+agonist responses greater than the control agonist peak) |  |  | 
CCCCCCC(=O)OCC [ethyl heptanoate] | none |  | none | + (potentiation (+) for drug+agonist responses greater than the control agonist peak) |  |  | 
CCCCCCCC(=O)OCC [ethyl octanoate] | none |  | none | + (potentiation (+) for drug+agonist responses greater than the control agonist peak) |  |  | 
CCCCCC [hexane] | none | 0 (no response (0) for drug+agonist responses that differ by <10% from the control agonist peak) | none | + (potentiation (+) for drug+agonist responses greater than the control agonist peak) |  |  | 
Cc1ncc2n1-c1ccc(Cl)cc1C(c1ccccc1F)=NC2 [midazolam] |  |  |  |  | modulate 4-transmembrane receptors (TM4) or neither receptor type |  | 
[N-]=[N+]=O [nitrous oxide] |  |  |  |  | modulate both 3-transmembrane (TM3) and TM4 receptors |  | 
CCCCCCCCC=O [nonanal] | none | 0 (no response (0) for drug+agonist responses that differ by <10% from the control agonist peak) | none | + (potentiation (+) for drug+agonist responses greater than the control agonist peak) |  |  | 
CCCCCCCCC [nonane] |  |  |  |  | modulate 4-transmembrane receptors (TM4) or neither receptor type |  | 
CCCCCCCC=O [octanal] | none |  |  | + (potentiation (+) for drug+agonist responses greater than the control agonist peak) |  |  | 
CCCCC [pentane] | none | 0 (no response (0) for drug+agonist responses that differ by <10% from the control agonist peak) | none | + (potentiation (+) for drug+agonist responses greater than the control agonist peak) |  |  | positively modulate GABAA receptors
CCCCCCCCCCC=O [undecanal] | none | 0 (no response (0) for drug+agonist responses that differ by <10% from the control agonist peak) | none | + (potentiation (+) for drug+agonist responses greater than the control agonist peak) |  |  | 
